Laboratory results taken from patent US20260056197A1, “METHOD FOR MEASURING TRACP-5b AND KIT THEREFOR” (NITTO BOSEKI CO., LTD., priority 2023, published 2026).

Assays:
Type in all cases: biochemical
[1] = test system: TRACP-5b; assay: Test 1: evaluation of TRACP-5a inhibitor in an enzyme method; conditions: Table 4; 0.1 mass % evaluation compound in chromogenic substrate solution; 7 U/L TRACP-5b solution; control without compound 6.9
Method: The amount of absorbance change per minute (the amount of absorbance change per unit time during the enzymatic reaction) was determined from the absorbance change between both the time points.
(§1) On the other hand, serial dilutions of a TRACP-5b reference solution with known activity in a 22 mM MES buffer solution (pH 5.0) as well as a 22 mM MES buffer solution (pH 5.0) as a blank were prepared; the serial dilutions of the TRACP-5b reference solution were measured using the chromogenic substrate solution containing each evaluation compound, thereby producing a standard straight line for the TRACP-5b. In addition, the serial dilutions of the TRACP-5b reference solution were measured using the chromogenic substrate solution without any evaluation compound in the same manner, thereby producing a standard straight line for the TRACP-5b. The chromogenic substrate solution containing each evaluation compound and the chromogenic substrate solution without any evaluation compound were used to measure the TRACP-5b solution and the TRACP-5a solution, and these standard straight lines were used to calculate activity values from the obtained amounts of absorbance change.

[2] = target: T1, TRACP-5a (Homo sapiens, UniProt P13686); assay: Test 2: study of concentration of TRACP-5a inhibitor (enzyme method); conditions: Table 8; for Activity value 5a: 8 U/L TRACP-5a solution, control 8.0; for 5b/5a ratio: control 0.9
T1 construct: purchased R&D Systems, Inc
T1 sequence (P13686 22-325): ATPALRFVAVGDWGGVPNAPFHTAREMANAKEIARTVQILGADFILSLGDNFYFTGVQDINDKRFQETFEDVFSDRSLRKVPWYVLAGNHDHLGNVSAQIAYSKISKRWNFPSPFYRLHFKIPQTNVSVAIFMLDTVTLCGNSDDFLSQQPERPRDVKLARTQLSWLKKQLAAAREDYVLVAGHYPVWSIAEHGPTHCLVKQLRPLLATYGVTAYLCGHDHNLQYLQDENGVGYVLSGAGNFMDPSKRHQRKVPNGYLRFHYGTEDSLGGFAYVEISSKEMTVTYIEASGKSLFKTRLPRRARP
Method: (§2) For the measurement, Hitachi automatic analyzer model 7180 (Hitachi High-Tech Corporation) was used. To 16 μL of the 7 U/L TRACP-5b solution, or the 7 U/L TRACP-5a solution or the 8 U/L TRACP-5a solution, 200 μL of the chromogenic substrate solution containing an evaluation compound was added to start an enzymatic reaction, and the absorbance (primary wavelength: 405 nm, secondary wavelength: 480 nm) was measured for 516.0 seconds starting at 340.5 seconds after the beginning of the enzymatic reaction. The amount of absorbance change per minute (the amount of absorbance change per unit time during the enzymatic reaction) was determined from the absorbance change between both the time points.
as §1
(§3) For dextran sulfate sodium (5K), dextran sulfate sodium (50K), sodium polyvinyl sulfonate (5K), and sodium vinylsulfonate, the influence of the concentration on the inhibitory activity was studied.
(§4) The concentration of each evaluation compound in the measurement reagent (chromogenic substrate solution) was adjusted as follows.
(§5) A 7 U/L TRACP-5b solution and a 7 U/L TRACP-5a solution were used in the test using a reagent containing dextran sulfate sodium (5K) and dextran sulfate sodium (50K); a 7 U/L TRACP-5b solution and a 7 U/L or 8 U/L TRACP-5a solution were used in the test using a reagent containing sodium polyvinyl sulfonate (5K); and a 7 U/L TRACP-5b solution and an 8 U/L TRACP-5a solution were used in the test using a reagent containing sodium vinylsulfonate.
(§6) The chromogenic substrate solution having the same composition as in Test 1 was used, except that the concentration of each evaluation compound was as described above. The measurement method was carried out in the same procedure as in Test 1.

[3] = test system: TRACP-5b; assay: as above; conditions: Table 8, 7 U/L TRACP-5b solution, control 6.9
Method: as §2, §1, §3, §4, §5, §6

[4] = target: T1, TRACP-5a; assay: Evaluation of TRACP-5a inhibitor in EIA method; conditions: for 5b/5a ratio: Table 14, 0.1 mass % evaluation compound in chromogenic substrate solution, control without compound 1.3; for Abs. 405 nm 5a: Table 14, antibody-immobilized plate, 0.1 mass % evaluation compound in chromogenic substrate solution, 7 U/L TRACP-5a solution, control without compound 0.1956
Method: (§7) A TRACP-5b monoclonal antibody (Accession Number IPOD FERM BP-7890) was diluted with PBS (8 mM disodium hydrogenphosphate, 1.5 mM sodium dihydrogenphosphate, 2.7 mM KCl, and 137 mM NaCl; pH 7.5) to 10 µg/mL, and 100 μL of the antibody-containing solution was added to each well of an ELISA plate (manufactured by Thermo Fisher Scientific, Inc., product number 468667). The solution was left to stand overnight under refrigeration, then washed 3 times with 300 μL of TBS-T (50 mM Tris-HCl, 150 mM NaCl, and 0.05% Tween 20; pH 7.5), then 300 μL of TBS containing 1.5% BSA was added, and the mixture was left to stand overnight under refrigeration.
(§8) After the TBS containing 1.5% BSA was removed from the prepared antibody-immobilized plate, 100 μL of TBS (50 mM Tris-HCl and 150 mM NaCl, pH 7.5) and 50 μL of the 7 U/L TRACP-5b solution or the 7 U/L TRACP-5a solution were added to each well, and the mixture was reacted for 1 hour under stirring (25° C., 700 rpm). After washing 3 times with 300 µL of TBS-T, 100 μL of a chromogenic substrate solution (5 mM 2-chloro-4-nitrophenyl phosphate, 109 mM MES, and 40 mM sodium tartrate; pH 6.6) to which the evaluation compound was added at a concentration of 0.1 mass % was added to each well, and the plate was left to stand at 37° C. for 1 hour. Thereafter, 50 μL of 0.5 N NaOH was added, and the absorbance (primary wavelength: 405 nm, secondary wavelength: 490 nm) was measured with a plate reader.

[5] = test system: TRACP-5b; assay: Evaluation of TRACP-5a inhibitor in EIA method; conditions: Table 14, antibody-immobilized plate, 0.1 mass % evaluation compound in chromogenic substrate solution, 7 U/L TRACP-5b solution, control without compound 0.2477
Method: as §7, §8

[6] = target: T1, TRACP-5a; assay: Test 1: evaluation of TRACP-5a inhibitor in an enzyme method; conditions: Table 4, 0.1 mass % evaluation compound in chromogenic substrate solution; for Activity value 5a: 7 U/L TRACP-5a solution, control without compound 6.5; for 5b/5a ratio: control without compound 1.1
Method: TRACP-5b manufactured by Nittobo Medical Co., Ltd. and TRACP-5a manufactured by R&D Systems, Inc. were diluted with a 22 mM MES buffer (pH 5.0) to prepare a 7 U/L TRACP-5b solution and a 7 U/L TRACP-5a solution, and the solutions were used as measurement samples. In the measurement with sodium hyaluronate, a 7 U/L TRACP-5b solution and an 8 U/L TRACP-5a solution prepared in the same manner were used.
A chromogenic substrate solution having the following composition was used. • 5 mM 2-chloro-4-nitrophenyl phosphate • 109 mM MES • 40 mM sodium tartrate • 0.1 mass % evaluation compound • pH 6.6
as §2, §1
The measurement using sodium hyaluronate was performed in a separate batch from that with other evaluation compounds.

In the case of `C=CS(=O)(=O)[O-].[Na+]` [Example 5, Sodium vinylsulfonate], the “Activity value 5b” value [1] is reported as 6.5 U/L, the “Activity value 5a” value ([2]; VSA Na 0.0100 mass %) is reported as 6.8 U/L and the 5b/5a ratio ([2]; VSA Na 0.0100 mass %) is reported as 1.0. The “Activity value 5a” value ([2]; VSA Na 0.0150 mass %) was 5.6 U/L, the 5b/5a ratio ([2]; VSA Na 0.0150 mass %) was 1.2 and the “Activity value 5b” value ([3]; VSA Na 0.0100 mass %) was 6.8 U/L. For the same compound, the “Activity value 5b” value ([3]; VSA Na 0.0150 mass %) was 6.8 U/L, the 5b/5a ratio [4] was 3.4 and the “Abs. 405 nm 5a” value [4] was 0.0775. For the same compound, the “Abs. 405 nm 5b” value [5] was 0.2600, the “Activity value 5a” value [6] was 1.6 U/L and the 5b/5a ratio [6] was 4.1.

With Sodium vinylsulfonate [Example 5] the “Activity value 5a” value ([2]; VSA Na 0.0200 mass %) was 4.5 U/L, the 5b/5a ratio ([2]; VSA Na 0.0200 mass %) was 1.5 and the “Activity value 5b” value ([3]; VSA Na 0.0200 mass %) was 6.9 U/L.

“β-cyclodextrin sodium sulfate [Comparative example 1, reference compound]” was tested, and the “Activity value 5b” value [1] was 6.7 U/L, the 5b/5a ratio [4] was 2.3 and the “Abs. 405 nm 5a” value [4] was 0.0853. For the same compound, the “Abs. 405 nm 5b” value [5] was 0.1971, the “Activity value 5a” value [6] was 2.3 U/L and the 5b/5a ratio [6] was 2.9.
